Results published in US4933157A, “Radioiodinated arylaliphatic ether analogues of cholesterol” (The University of Michigan, priority 1988, dated 1990).
Read-outs that look alike come from different tables or passages of the source.

What was measured:
[1] = in vivo; cited from earlier work
[2] = Tissue distribution of radioactivity following IV administration of radioiodinated cholesteryl ethers to female rats; type: in vivo, female Sprague Dawley rats
Experimental: (§1) The labelled compounds ([…] ^125 I) were administered intravenously in a 2% Tween-20-saline vehicle. At various times following administration, the animals were sacrificed, and selected tissue samples were removed. The tissue samples were weighed and placed in cellulose acetate capsules. The radioactivity was then counted (85%) efficiency using a well scintillation counter (Searle 1185). The results from selected tissue samples are shown below in Tables 1 and 2. The tissue distribution of the selected cholesteryl ether is expressed as percent Kg dose per g of tissue after 30 minutes (Table 1) and after 24 hours (Table 2).

[3] = Tissue distribution of radioactivity following IV administration to male guinea pigs; type: in vivo, male Hartley guinea pigs
Experimental: as §1

[4] = Polyacrylamide gel electrophoresis of rat plasma (plasma level studies); type: in vivo, female Sprague Dawley rats
[5] = Experimental: Female Sprague Dawley rats were injected with a radio-iodinated arylaliphatic cholesteryl ether analogue (^125 I) solubilized in a suitable transport agent, such as 2% Tween 20-saline. After a predetermined time period, blood samples were drawn from the rats. The plasma was separated from the red blood cells and mixed with a suitable dye (Sudan Black or Sudan Blue). The plasma samples were then subjected to polyacrylamide gel electrophoresis to separate the various fractions. The radioactivity of the various fractions were measured with a gamma counter. […] The data is expressed as a percent of total radioactivity in the gel.
Guinea pigs have a greater concentration of low density lipoproteins in their blood plasma than rats.

Structure (SMILES)	Tissue distribution of radioactivity: Adrenal ([2]; 30 minutes) [% KG DOSE/G OF TISSUE]	Tissue distribution of radioactivity: Blood ([2]; 30 minutes) [% KG DOSE/G OF TISSUE]	Tissue distribution of radioactivity: Liver ([2]; 30 minutes) [% KG DOSE/G OF TISSUE]	Tissue distribution of radioactivity: Ovary ([2]; 30 minutes) [% KG DOSE/G OF TISSUE]	Tissue distribution of radioactivity: Thyroid ([2]; 30 minutes) [% KG DOSE/G OF TISSUE]	Tissue distribution of radioactivity: Adrenal ([2]; 24 hours) [% KG DOSE/G OF TISSUE]	Tissue distribution of radioactivity: Blood ([2]; 24 hours) [% KG DOSE/G OF TISSUE]	Tissue distribution of radioactivity: Liver ([2]; 24 hours) [% KG DOSE/G OF TISSUE]	Tissue distribution of radioactivity: Ovary ([2]; 24 hours) [% KG DOSE/G OF TISSUE]	Tissue distribution of radioactivity: Thyroid ([2]; 24 hours) [% KG DOSE/G OF TISSUE]	Gel fraction: Albumin ([4]; 30 minutes)	Gel fraction: Below Alb ([4]; 30 minutes)	Gel fraction: HDL Band (high density lipoproteins) ([4]; 30 minutes)	Gel fraction: LDL Band (low density lipoproteins) ([4]; 30 minutes)	Gel fraction: Stacking Gel ([4]; 30 minutes)	Gel fraction: Albumin ([4]; 24 hours)	Gel fraction: Below Alb ([4]; 24 hours)	Gel fraction: HDL Band ([4]; 24 hours)	Gel fraction: Stacking Gel ([4]; 24 hours)	also measured
CC(C)CCC[C@@H](C)[C@H]1CC[C@H]2[C@@H]3C[C@@H](C[131I])C4=C(CC[C@H](O)C4)[C@H]3CC[C@]12C [NP-59, 6-b-iodomethyl-19-norcholest-5[10]en-3b-ol]																				metabolic loss of iodine and accumulation in the thyroid [1]: subject to metabolic loss of iodine and resulting accumulation of this iodine in the thyroid; uptake into the adrenal glands [1]: extremely slow
CC(C)CCC[C@@H](C)[C@H]1CC[C@H]2[C@@H]3CC=C4C[C@@H](OCc5cccc([125I])c5)CC[C@]4(C)[C@H]3CC[C@]12C [m-Iodobenzyl, m-iodobenzyl cholesteryl ether]	1.347 ± 0.289	0.985 ± 0.127	1.414 ± 0.176	0.635 ± 0.036	0.133 ± 0.018	3.755 ± 0.362	0.070 ± 0.006	2.607 ± 0.072	1.924 ± 0.301	1.307 ± 0.150	0.3 ± 0.1 % OF TOTAL RADIOACTIVITY IN GEL	0.0 ± 0.0 % OF TOTAL RADIOACTIVITY IN GEL	53.3 ± 2.2 % OF TOTAL RADIOACTIVITY IN GEL	41.0 ± 3.5 % OF TOTAL RADIOACTIVITY IN GEL	5.4 ± 2.5 % OF TOTAL RADIOACTIVITY IN GEL	1.1 ± 0.2 % OF TOTAL RADIOACTIVITY IN GEL	0.5 ± 0.1 % OF TOTAL RADIOACTIVITY IN GEL	45.7 ± 3.2 % OF TOTAL RADIOACTIVITY IN GEL	21.6 ± 5.8 % OF TOTAL RADIOACTIVITY IN GEL	Tissue distribution of radioactivity: Adrenal ([3]; 30 min): 0.360 ± 0.019 % KG DOSE/G OF TISSUE; Tissue distribution of radioactivity: Blood ([3]; 30 min): 0.799 ± 0.041 % KG DOSE/G OF TISSUE; Tissue distribution of radioactivity: Liver ([3]; 30 min): 0.643 ± 0.044 % KG DOSE/G OF TISSUE; Tissue distribution of radioactivity: Testes ([3]; 30 min): 0.025 ± 0.002 % KG DOSE/G OF TISSUE; Tissue distribution of radioactivity: Thyroid ([3]; 30 min): 0.039 ± 0.002 % KG DOSE/G OF TISSUE; Tissue distribution of radioactivity: Adrenal ([3]; 24 hr): 7.861 ± 0.656 % KG DOSE/G OF TISSUE; Tissue distribution of radioactivity: Blood ([3]; 24 hr): 0.158 ± 0.020 % KG DOSE/G OF TISSUE; Tissue distribution of radioactivity: Liver ([3]; 24 hr): 2.023 ± 0.147 % KG DOSE/G OF TISSUE; Tissue distribution of radioactivity: Testes ([3]; 24 hr): 0.043 ± 0.010 % KG DOSE/G OF TISSUE; Tissue distribution of radioactivity: Thyroid ([3]; 24 hr): 1.546 ± 0.279 % KG DOSE/G OF TISSUE; Gel fraction: LDL Band ([5]; guinea pig plasma, IV, 24 hr): 72.2 ± 2.0 % OF TOTAL RADIOACTIVITY IN GEL; dose associated with the low density lipoproteins ([5]; guinea pig, in vivo): greater than 70 % of the dose
CC(C)CCC[C@@H](C)[C@H]1CC[C@H]2[C@@H]3CC=C4C[C@@H](OCCCCCCCCCCCCc5cccc([125I])c5)CC[C@]4(C)[C@H]3CC[C@]12C [m-Iodophenyldodecyl, 12-(m-iodophenyl)dodecyl cholesteryl ether]	1.307 ± 0.177	1.250 ± 0.067	0.829 ± 0.121	0.936 ± 0.136	0.486 ± 0.085	3.063 ± 0.305	0.085 ± 0.002	1.779 ± 0.247	4.528 ± 0.816	6.047 ± 0.760	1.1 ± 0.2 % OF TOTAL RADIOACTIVITY IN GEL	0.5 ± 0.1 % OF TOTAL RADIOACTIVITY IN GEL	45.7 ± 3.2 % OF TOTAL RADIOACTIVITY IN GEL	31.2 ± 4.0 % OF TOTAL RADIOACTIVITY IN GEL	21.6 ± 5.8 % OF TOTAL RADIOACTIVITY IN GEL	3.4 ± 0.7 % OF TOTAL RADIOACTIVITY IN GEL	4.9 ± 1.3 % OF TOTAL RADIOACTIVITY IN GEL	66.2 ± 2.6 % OF TOTAL RADIOACTIVITY IN GEL	11.6 ± 1.3 % OF TOTAL RADIOACTIVITY IN GEL	Gel fraction: LDL Band ([4]; 24 hours): 14.0 ± 1.0 % OF TOTAL RADIOACTIVITY IN GEL
